The test system of data set [1] is acetic acid ulcer. Kind of data set: Therapeutic effect in rat acetic acid chronic ulcer model. The class given is in vivo, Wister male rats. Conditions: 0.5 ml daily once for 2 weeks, eighth week; for Average ulcer coefficient: 3 rats; for Ulcer coefficient: individual rats. An excerpt:
That is, the rats were anesthetized under Nembutal and the belly was cut along the midline to remove the stomach. Then, a cylinder of […] in diameter charged with absorbent cotton impregnated sufficiently with 100% acetic acid was pressed against the border between the stomach and the pyloric region for about 30 seconds, and the acetic acid adhering to the serous membrane was wiped off with a germ-free gauze, and the belly was sutured. After 6 weeks, one rat was picked up as the control at random from the untreated group, killed and dissected to confirm ulcer formation. […] In the seventh and eight weeks, one untreated rat selected at random was killed and the belly was opened to reconfirm formation of stomach ulcer. Each rat was killed in the eight week and the area of the ulcer was measured, and the ulcer coefficient was determined according to a method of Okabe et al. (Okabe S, Roth […] method for experimental penetrating gastric and duodenal ulcers in rats. Observation on normal healing. Amer J Dig Dis 16: 277-284, 1971).

Data set [2] deals with indomethacin ulcer. Kind of data set: Therapeutic effect in indomethacin ulcer rat model. The class given is in vivo, Wister male rats. Set-up: key: no bleeding was expressed as negative (−); trace bleeding was given (±); dotted bleeding (+); broad bleeding (++). The note with it: individual rats; given 3 hours after indomethacin 20 mg/kg; judged after 24 hours; PGE1 3.3 μg/kg. Here is the method: 3 hours after administration of indomethacin, prostaglandin (PGE1) liquid preparation No. 41 (containing alprostadil alfadex as the medicine), PGE1 solution dissolved in purified water in a dose of 3.3 μg/kg in weight as a positive control, the liquid matrix only was administered as a negative control, and purified water only for confirming formation of ulcer to the untreated group, respectively, was administered. After 1 hour, the rats were given feed. The untreated group after 3 hours from administration of indomethacin and the other groups after 24 hours were killed, and dissected to judge ulcer and bleeding in the stomach.
Indomethacin ulcer in the fasted rats is different from that in humans, and develops in the stomach without generating in the pyloric vestibule. Therefore, judgment was made on the basis of bleeding. That is, no bleeding was expressed as negative (−), trace bleeding was given (±), dotted bleeding (+), and broad bleeding (++).

For data set [3] the following is noted: rat, in vivo, 20 mg/kg.
Experimental: These rats were fasted for 24 hours, and then indomethacin (IND) suspended in 1% carboxymethyl cellulose (CMS) solution was administered in a dose of 20 mg/kg to the rats via an oral probe for rat into the stomach to induce indomethacin ulcer.

Several values for one entry are separate records, joined by “and”; a condition that tells them apart may be missing. Equal values may be shown once. Where a name gives a salt, the structure may show the parent alone.

For `NC[C@H]1CC[C@H](C(=O)Oc2ccc(CCC(=O)O)cc2)CC1` [Cetraxate HCl solution, cetraxate hydrochloride], the Average ulcer coefficient in data set [1] stood at 2.33. Further, the Ulcer coefficient in data set [1] (hydrochloride) is 2 (2 for 11 to 20 mm^2) (2×) and 3 (3 for 21 to 30 mm^2).
In the case of `CN/C(=N/CCSCc1nc[nH]c1C)NC#N` [Cimetidine solution, cimetidine], in data set [1], the Average ulcer coefficient stood at 2.67; the Ulcer coefficient was 3 (3 for 21 to 30 mm^2) (2×) and 2 (2 for 11 to 20 mm^2).
For `CCCCC[C@H](O)/C=C/[C@H]1[C@H](O)CC(=O)[C@@H]1CCCCCCC(=O)O` [PEG1 solution, prostaglandin (PGE1)], the “Judgment of bleeding in the stomach” value in data set [2] is “± (3×) and + and −”.
Consider `CC(=O)CC/C=C(\C)CC/C=C(\C)CC/C=C(\C)CCC=C(C)C` [Teprenone solution, teprenone], for which, in data set [1], the Average ulcer coefficient is 2.33; the Ulcer coefficient is 3 (3 for 21 to 30 mm^2) and 2 (2 for 11 to 20 mm^2) (2×).
As for `COc1ccc2c(c1)c(CC(=O)O)c(C)n2C(=O)c1ccc(Cl)cc1` [indomethacin], the “Time at which blood concentration reached the maximum” value in data set [3] (male, Wister) turned out to be 3 h. In addition, the “Finding in the stomach” value in data set [3] is listed as “erosive bleeding was observed in the stomach”.

The record behind these values is patent publication US20050089577A1, “Liquid matrix undergoing phase transfer in vivo and liquid oral preparations” (priority 2002, published 2005).
